Data as given in patent US12281121B2, “N-containing heteroaryl derivative and pharmaceutical composition comprising same as active ingredient for prevention or treatment of cancer” (VORONOI Inc., priority 2019, dated 2025).

What was measured:
[1] = test system: Ba/F3 KIF5B-RET (V804M) cells; test: Cell proliferation inhibition, CellTiter-Glo; assay type: cell-based; settings: Mus musculus, BaF3, 72 hours
Protocol: (§1) Among lung cancer cell lines, which express RET fusion genes, LC-2/ad cells were cultured after adding 10% FBS (HyClone) to RPMI:F12 (1:1) (Invitrogen), and F-12 (Invitrogen) supplemented with 10% FBS was used for TT cells. RPMI-1640 supplemented with 10% FBS and 5 ng/ml IL-3 (R&D Systems) was used for Ba/F3 cells. Transduced Ba/F3 cells were cultured by adding 1 ug/ml puromycin (Invitrogen) to the same medium. 24 hours before cells were treated with the compound, 3000 to 5000 cells were aliquoted into each well of a white clear bottom 96 well plate (Corning). The compound was diluted in DMSO (3-fold dilution, a total of 12 concentrations) and the compound was injected by 0.5 μl such that the final concentration was 0.3 nM to 50 μM. For the measurement of living cells, 72 hours after the compound treatment, the cells were stored at room temperature for 10 minutes using a CellTiter-Glo luminescent cell-viability agent (Promega), and then the luminescence intensity was measured using a reader (SynergyNeo, Biotek). Each experiment was repeated in triplicate. The result value was calculated by the cell growth ratio (%) compared to the control. A graph was drawn using the GraphPad Prism version 5.0 program, and a GI50 (nM) value was calculated.
(§2) In the cell assay column, LC-2/ad (with CCDC6-RET gene) is a lung cancer cell line, a TT cell line ([…]) is a thyroid cancer cell line, Ba/F3 CCDC6-RET (WT), Ba/F3 KIF5B-RET (WT), and Ba/F3 KIF5B-RET (V804M) are cells in which disease-related traits (CCDC6-RET, KIF5B-RET, and KIF5B-RET (V804M)) are introduced into Ba/F3 cells, and Ba/F3 (naive) is a cell which is not transduced.

[2] = target: T1, RET (WT) (Homo sapiens, UniProt P07949); test: RET enzyme inhibitory ability, ADP-Glo kinase assay; assay type: biochemical; settings: ATP 10 μM, 25° C., 1 hour
T1 construct: human RET (658-end, SIGNALCHEM); purchased SIGNALCHEM
T1 sequence (P07949 658-1114 limits assumed): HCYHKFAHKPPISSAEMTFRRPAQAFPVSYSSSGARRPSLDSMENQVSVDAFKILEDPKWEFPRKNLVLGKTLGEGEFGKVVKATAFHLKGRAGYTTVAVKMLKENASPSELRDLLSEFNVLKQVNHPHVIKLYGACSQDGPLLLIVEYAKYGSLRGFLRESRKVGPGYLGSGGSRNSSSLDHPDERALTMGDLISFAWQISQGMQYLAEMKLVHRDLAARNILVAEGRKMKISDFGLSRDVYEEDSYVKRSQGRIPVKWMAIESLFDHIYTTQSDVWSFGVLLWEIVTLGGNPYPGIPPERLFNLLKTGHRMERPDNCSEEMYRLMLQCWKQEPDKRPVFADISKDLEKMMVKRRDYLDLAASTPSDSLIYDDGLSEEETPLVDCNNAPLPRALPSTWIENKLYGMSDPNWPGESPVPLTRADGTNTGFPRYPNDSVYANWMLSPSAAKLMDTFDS
Protocol: The Example compound was reacted with a purified human RET (658-end, SIGNALCHEM) enzyme to evaluate the enzyme inhibitory ability by the following method. As a reaction buffer, a composition of 40 mM Tris-HCl pH 7.4, 20 mM MgCl2, 0.5 mg/mL BSA, and 50 μM DTT was used, and all experimental materials were reacted on the reaction buffer. After the human RET (658-end, 0.8 ng) enzyme was reacted with purified ATP (10 μM) and a specific substrate solution at 25° C. for 1 hour during the experiment, the enzyme activity was confirmed using in vitro ADP-Glo™ kinase assay (Promega). Luminescence was measured by reacting the enzyme activity reaction solution, the ADP-Glo reaction solution, and the enzyme activity detection solution at a ratio of 2:2:1. The degree of inhibition of enzyme activity according to the treatment concentration of each compound was calculated based on the […] of the enzyme activity of a solvent control group in which a compound was not treated, and in this case, the concentration of each compound which suppresses the […] enzyme activity by 50% was determined as an IC50 (nM) value. The IC50 (nM) of each compound was determined by 3 datasets and obtained using Prism (version 7.01, GraphPad) software.
In the enzyme assay column, RET (WT) is a non-mutated form, RET (V804M) is a mutated form in which the V amino acid at position 804 of the RET is substituted with M, and CCDC6-RET is a form in which the RET (WT) gene and CCDC6 gene are fused.

[3] = test system: Ba/F3 CCDC6-RET (WT) cells; test: Cell proliferation inhibition, CellTiter-Glo; assay type: cell-based; settings: BaF3/CCDC6-RET, 72 hours
Protocol: as §1, §2

[4] = test system: Ba/F3 (naive) cells; test: Cell proliferation inhibition, CellTiter-Glo; assay type: cell-based; settings: Mus musculus, BaF3; Ba/F3 not transduced, 72 hours
Protocol: as §1, §2

[5] = test system: Ba/F3 KIF5B-RET (WT) cells; test: Cell proliferation inhibition, CellTiter-Glo; assay type: cell-based; settings: Mus musculus, BaF3, 72 hours
Protocol: as §1, §2

SMILES	GI50 [1]	IC50 [2]	GI50 [3]	GI50 [4]	GI50 [5]
Cc1cc(Nc2nc(-c3ccc(N4CC5CC(C4)N5Cc4cc(F)c(OC(C)C)c(F)c4)nc3)nc3ccccc23)n[nH]1 [Example 11, 2-(6-(6-(3,5-difluoro-4-isopropoxy-benzyl)-3,6-diazabicyclo [3.1.1]heptan-3-yl)pyridin-3-yl)-N-(5-methyl-1H-pyrazol-3-yl)quinazolin-4-amine]	119 nM	–	–	–	–
Cc1cc(Nc2nc(-c3ccc(N4CC5CC(C4)N5Cc4ccc(N(C)C)nc4)nc3)nc3ccccc23)n[nH]1 [Example 20, 2-(6-(6-((6-(di-methylamino)py-ridin-3-yl)meth-yl)-3,6-diazabicyclo [3.1.1]heptan-3-yl)pyridin-3-yl)-N-(5-methyl-1H-pyrazol-3-yl)quinazolin-4-amine]	6 nM	14 nM	44 nM	2780 nM	11 nM
COc1ccc(CN2C[C@@H](C)N(c3ccc(-c4nc(Nc5cc(C)[nH]n5)c5ccccc5n4)cn3)C[C@@H]2C)cn1 [Example 32]	239 nM	–	–	–	–
COc1ccc(CN2C3CC2CN(c2ccc(-c4nc(Nc5cc(C)[nH]n5)c5ccccc5n4)cn2)C3)cc1C#N [Example 12, 2-methoxy-5-((3-(5-(4-((5-methyl-1H-pyrazol-3-yl)amino)quina-zolin-2-yl)pyridin-2-yl)-3,6-diazabicyclo [3.1.1]heptan-6-yl)methyl)benzo-nitrile]	49 nM	38 nM	52 nM	2540 nM	15 nM
COc1ccc(CN2CCN(c3ccc(-c4nc(Nc5cc(C)[nH]n5)c5ccccc5n4)cn3)CC23CC3)cn1 [Example 37, 2-(6-(4-((6-methoxypyridin-3-yl)methyl)-4,7-diazaspiro[2.5]oc-tan-7-yl)pyridin-3-yl)-N-(5-meth-yl-1H-pyrazol-3-yl)quinazolin-4-amine]	50 nM	219 nM	305 nM	4650 nM	107 nM
Cc1cnc(CN2C3CC2CN(c2ccc(-c4nc(Nc5cc(C)[nH]n5)c5ccccc5n4)cn2)C3)cn1 [Example 26, N-(5-methyl-1H-pyrazol-3-yl)-2-(6-(6-((5-methylpyrazin-2-yl)methyl)-3,6-diazabicyclo [3.1.1]heptan-3-yl)pyridin-3-yl)quinazolin-4-amine]	10 nM	7 nM	37 nM	973 nM	10 nM
Cc1csc(CN2C3CC2CN(c2ccc(-c4nc(Nc5cc(C)[nH]n5)c5ccccc5n4)cn2)C3)n1 [Example 19, N-(5-methyl-1H-pyrazol-3-yl)-2-(6-(6-((4-methylthiazol-2-yl)methyl)-3,6-diazabicyclo [3.1.1]heptan-3-yl)pyridin-3-yl)quinazolin-4-amine]	28 nM	40 nM	120 nM	1230 nM	29 nM
COc1ccc(CN2CCCN(c3ccc(-c4nc(Nc5cc(C)[nH]n5)c5ccccc5n4)cn3)CC2)cn1 [Example 30, 2-(6-(4-((6-methoxypyridin-3-yl)methyl)-1,4-diazepan-1-yl)pyridin-3-yl)-N-(5-methyl-1H-pyrazol-3-yl)quinazolin-4-amine]	25 nM	34 nM	99 nM	1130 nM	44 nM
Cc1cc(Nc2nc(-c3ccc(N4CC5CC(C4)N5Cc4ccc(C(F)(F)F)nc4)nc3)nc3ccccc23)n[nH]1 [Example 8, N-(5-methyl-1H-pyrazol-3-yl)-2-(6-(6-((6-(tri-fluoromethyl)py-ridin-3-yl)meth-yl)-3,6-diaza-bicyclo[3.1.1]heptan-3-yl)pyridin-3-yl)quinazolin-4-amine]	23 nM	32 nM	51 nM	1980 nM	12 nM
Cc1cc(Nc2nc(-c3ccc(N4CC5CC(C4)N5Cc4ccc(NS(C)(=O)=O)cc4)nc3)nc3ccccc23)n[nH]1 [Example 21, N-(4-((3-(5-(4-((5-methyl-1H-pyrazol-3-yl)a-mino)quinazolin-2-yl)pyridin-2-yl)-3,6-diazabicyclo [3.1.1]heptan-6-yl)methyl)phenyl) methane-sulfonamide]	117 nM	–	–	–	–
Cc1cc(Nc2nc(-c3ccc(N4CC5CC(C4)N5Cc4ccc5ncccc5c4)nc3)nc3ccccc23)n[nH]1 [Example 18, N-(5-methyl-1H-pyrazol-3-yl)-2-(6-(6-(quinolin-6-ylmethyl)-3,6-diazabicyclo [3.1.1]heptan-3-yl)pyridin-3-yl)quinazolin-4-amine]	25 nM	34 nM	67 nM	4600 nM	28 nM
Cc1ncc(CN2C3CC2CN(c2ccc(-c4nc(Nc5cc(C)[nH]n5)c5ccccc5n4)cn2)C3)cn1 [Example 25, N-(5-methyl-1H-pyrazol-3-yl)-2-(6-(6-((2-methylpyrimidin-5-yl)methyl)-3,6-diazabicyclo [3.1.1]heptan-3-yl)pyridin-3-yl)quinazolin-4-amine]	21 nM	7 nM	50 nM	1650 nM	14 nM
COc1ccc(CN2C(C)CN(c3ccc(-c4nc(Nc5cc(C)[nH]n5)c5ccccc5n4)cn3)C[C@H]2C)cn1 (stereo in doubt) [Example 35, 2-(6-((3R,5S)-4-((6-methoxy-pyridin-3-yl)methyl)-3,5-dimethyl-piperazin-1-yl)pyridin-3-yl)-N-(5-methyl-1H-pyrazol-3-yl)quinazolin-4-amine]	328 nM	–	–	–	–
Cc1cc(Nc2nc(-c3ccc(N4CC5CC(C4)N5Cc4ccn(C)c(=O)c4)nc3)nc3ccccc23)n[nH]1 [Example 27, 1-methyl-4-((3-(5-(4-((5-methyl-1H-pyrazol-3-yl)amino)quina-zolin-2-yl)pyridin-2-yl)-3,6-diazabicyclo [3.1.1]heptan-6-yl)methyl)pyri-din-2(1H)-one]	159 nM	–	–	–	–
COc1ccc(CN2CCN(c3ccc(-c4nc(Nc5cc(C)[nH]n5)c5ccccc5n4)cn3)C[C@@H]2C)cn1 [Example 33, (S)-2-(6-(4-((6-methoxypyridin-3-yl)methyl)-3-methylpiperazin-1-yl)pyridin-3-yl)-N-(5-methyl-1H-pyrazol-3-yl)quinazolin-4-amine]	121 nM	–	–	–	–
COc1ccc(CN2C[C@H](C)N(c3ccc(-c4nc(Nc5cc(C)[nH]n5)c5ccccc5n4)cn3)C[C@H]2C)cn1 [Example 28, 2-(6-((2S,5R)-4-((6-methoxy-pyridin-3-yl)methyl)-2,5-di-methylpiperazin-1-yl)pyridin-3-yl)-N-(5-methyl-1H-pyrazol-3-yl)quinazolin-4-amine]	321 nM	–	–	–	–
Cc1cc(Nc2nc(-c3ccc(N4CC5CC(C4)N5Cc4cnc[nH]4)nc3)nc3ccccc23)n[nH]1 [Example 13, 2-(6-(6-((1H-imidazol-5-yl)methyl)-3,6-diazabicyclo [3.1.1]heptan-3-yl)pyridin-3-yl)-N-(5-methyl-1H-pyrazol-3-yl)quinazolin-4-amine]	2450 nM	–	–	–	–
